Results published in paper PMC8699473, “An Easily Expandable Multi-Drug LC-MS Assay for the Simultaneous Quantification of 57 Oral Antitumor Drugs in Human Plasma” (Cancers, 2021).

Assay: Short-term stability in spiked pooled human plasma (bench-top, 4 °C, 56 °C)

| SMILES | Short-time stability (1h, 56°C) Accuracy [%] (validation standard 2xLLOV) | Short-time stability (24h, 4°C, without daylight) Accuracy [%] (validation standard 2xLLOV) | Short-time stability (24h, RT, with daylight) Accuracy [%] (validation standard 2xLLOV) | Short-time stability (24h, RT, without daylight) Accuracy [%] (validation standard 2xLLOV) | Short-time stability (1h, 56°C) Accuracy [%] (validation standard LLOV) | Short-time stability (24h, 4°C, without daylight) Accuracy [%] (validation standard LLOV) | Short-time stability (24h, RT, with daylight) Accuracy [%] (validation standard LLOV) | Short-time stability (24h, RT, without daylight) Accuracy [%] (validation standard LLOV) | Short-time stability (1h, 56°C) Accuracy [%] (validation standard MOV) | Short-time stability (24h, 4°C, without daylight) Accuracy [%] (validation standard MOV) | Short-time stability (24h, RT, with daylight) Accuracy [%] (validation standard MOV) | Short-time stability (24h, RT, without daylight) Accuracy [%] (validation standard MOV) | Short-time stability (1h, 56°C) Accuracy [%] (validation standard ULOV) | Short-time stability (24h, 4°C, without daylight) Accuracy [%] (validation standard ULOV) | Short-time stability (24h, RT, with daylight) Accuracy [%] (validation standard ULOV) | Short-time stability (24h, RT, without daylight) Accuracy [%] (validation standard ULOV) |
| --- | --- | --- | --- | --- | --- | --- | --- | --- | --- | --- | --- | --- | --- | --- | --- | --- |
| CCCS(=O)(=O)Nc1ccc(F)c(C(=O)c2c[nH]c3ncc(-c4ccc(Cl)cc4)cc23)c1F [Vemurafenib] | 41.6 | 93.0 | 92.7 | 85.9 | 34.3 | 90.0 | 93.0 | 82.9 | 39.7 | 100.4 | 89.3 | 92.1 | 34.6 | 93.8 | 91.3 | 88.2 |
| CCOc1cc2ncc(C#N)c(Nc3ccc(OCc4ccccn4)c(Cl)c3)c2cc1NC(=O)/C=C/CN(C)C [Neratinib] | -7.9 | 79.9 | 23.2 | 25.4 | -88.6 | 65.9 | -37.5 | -39.1 | 26.0 | 89.7 | 37.9 | 39.2 | 21.9 | 81.3 | 28.5 | 31.5 |
| O=C1CN2Cc3c(ccc(Cl)c3Cl)N=C2N1 [Anagrelide] | 66.3 | 104.2 | 84.8 | 84.4 | 55.6 | 90.4 | 78.3 | 67.4 | 52.9 | 96.9 | 96.0 | 88.7 | 46.2 | 93.5 | 98.5 | 94.1 |
| NC(=O)c1cccc2cn(-c3ccc([C@@H]4CCCNC4)cc3)nc12 [Niraparib] | 53.4 | 96.9 | 95.2 | 93.8 | 46.8 | 93.8 | 92.3 | 91.9 | 51.1 | 100.2 | 97.6 | 96.5 | 43.8 | 92.7 | 95.8 | 94.0 |
| COC(=O)N[C@@H](C)CNc1nccc(-c2cn(C(C)C)nc2-c2cc(Cl)cc(NS(C)(=O)=O)c2F)n1 [Encorafenib] | 54.9 | 106.5 | 109.5 | 112.9 |  | 110.1 | 108.1 | 104.0 | 54.0 | 102.1 | 105.9 | 109.8 | 44.5 | 98.5 | 108.8 | 108.3 |
| Cn1cnc2c(F)c(Nc3ccc(Br)cc3F)c(C(=O)NOCCO)cc21 [Binimetinib] | 55.9 | 105.5 | 89.3 | 86.4 | 68.1 | 117.1 | 111.6 | 106.0 | 42.6 | 94.8 | 86.5 | 89.2 | 36.7 | 96.8 | 101.8 | 97.3 |
